Experimental data: PubChem BioAssay (NCI)
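Following 48 hours of exposure in 96-well plates, responses at five concentrations were used to interpolate endpoints linearly. GI50 is the concentration that inhibits growth by half. TGI is the concentration that stops growth completely.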

What was measured:
Test in all cases: growth of human tumour cells (NCI), 48 h
[1] = test system: OVCAR-8 ovarian
[2] = test system: K-562 leukemia
[3] = test system: PC-3 prostate
[4] = test system: MCF7 breast
[5] = test system: COLO 205 colon
[6] = test system: SK-OV-3 ovarian
[7] = test system: 786-0 renal
[8] = test system: OVCAR-5 ovarian
[9] = test system: MALME-3M melanoma
[10] = test system: CCRF-CEM leukemia

Compound: O=C(Nc1ccc(-n2ccc3c(NC(=O)c4ccccc4)nccc32)cc1)c1ccc(Cl)c(C(F)(F)F)c1
- GI50 [1]: 528 nM
- TGI [1]: 15900 nM
- GI50 [2]: 213 nM
- TGI [2]: > 17200 nM
- GI50 [3]: 2560 nM
- TGI [3]: 24800 nM
- GI50 [4]: 288 nM
- TGI [4]: 1240 nM
- GI50 [5]: 1830 nM
- TGI [5]: 11000 nM
- GI50 [6]: 1180 nM
- TGI [6]: 20700 nM
- GI50 [7]: 606 nM
- TGI [7]: 9930 nM
- GI50 [8]: 3840 nM
- TGI [8]: 27300 nM
- GI50 [9]: 4130 nM
- TGI [9]: 14700 nM
- GI50 [10]: 128 nM
- TGI [10]: 2170 nM
